Laboratory results as given in PubChem BioAssay AID328 (DTP/NCI, 2004).
Several values for one entry are separate records, joined by “and”; a condition that tells them apart may be missing. Equal values may be shown once. Inconclusive results and toxic doses are left out.

Tested on: BDF1 mice, P388 leukemia ip, median survival T/C
Assay: NCI In Vivo Anticancer Drug Screen. Data for tumor model P388 Leukemia (intraperitoneal) in B6D2F1 (BDF1) mice
Conditions: endpoint: median survival time, higher = longer survival
Summary of the method: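 Steps: implant the tumour, treat one group with compound and another with vehicle, record survival, then divide treated by control.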

## O=c1[nH]cc(F)c(=O)[nH]1
dose: 5.0 mg/kg/injection, schedule: Q03HX024 (ip), vehicle: saline
  T/C: 210 % of control
dose: 7.5 mg/kg/injection, schedule: Q01DX009 (ip), vehicle: saline
  T/C: 166 % of control and 179 % of control and 184 % of control
dose: 7.5 mg/kg/injection, schedule: Q03HX024 (ip), vehicle: saline
  T/C: 219 % of control
dose: 8.0 mg/kg/injection, schedule: Q01DX005 (ip), vehicle: saline
  T/C: 163 % of control
dose: 9.4 mg/kg/injection, schedule: Q04DX003 (ip), vehicle: saline
  T/C: 120 % of control
dose: 10.0 mg/kg/injection, schedule: Q01DX010 (ip), vehicle: acetone
  T/C: 95 % of control
dose: 10.0 mg/kg/injection, schedule: Q03HX024 (ip), vehicle: saline
  T/C: 233 % of control
dose: 11.0 mg/kg/injection, schedule: Q01DX009 (ip), vehicle: saline
  T/C: 211 % of control
dose: 13.0 mg/kg/injection, schedule: Q01DX009 (ip), vehicle: saline
  T/C: 122 % of control
dose: 13.2 mg/kg/injection, schedule: Q01DX009 (ip), vehicle: saline
  T/C: 250 % of control
dose: 13.3 mg/kg/injection, schedule: Q01DX009 (ip), vehicle: Klucel (hydroxypropylcellulose) (HPC)
  T/C: 150 % of control
dose: 13.3 mg/kg/injection, schedule: Q01DX009 (ip), vehicle: saline sonified
  T/C: 181 % of control
dose: 14.0 mg/kg/injection, schedule: Q01DX009 (ip), vehicle: saline
  T/C: 169 % of control
dose: 15.0 mg/kg/injection, schedule: Q03HX024 (ip), vehicle: saline
  T/C: 254 % of control
dose: 16.0 mg/kg/injection, schedule: Q01DX005 (ip), vehicle: saline
  T/C: 170 % of control
dose: 16.0 mg/kg/injection, schedule: Q01DX009 (ip), vehicle: saline
  T/C: 228 % of control and 169 % of control
dose: 20.0 mg/kg/injection, schedule: Q01DX005 (ip), vehicle: water
  T/C: 205 % of control
dose: 20.0 mg/kg/injection, schedule: Q01DX009 (ip), vehicle: Klucel (hydroxypropylcellulose) (HPC)
  T/C: 100 % of control
dose: 20.0 mg/kg/injection, schedule: Q01DX009 (ip), vehicle: saline sonified
  T/C: 113 % of control
dose: 20.0 mg/kg/injection, schedule: Q01DX010 (ip), vehicle: acetone
  T/C: 213 % of control
dose: 20.0 mg/kg/injection, schedule: Q04DX003 (ip), vehicle: saline
  T/C: 166 % of control
dose: 22.5 mg/kg/injection, schedule: Q03HX024 (ip), vehicle: saline
  T/C: 112 % of control
dose: 23.0 mg/kg/injection, schedule: Q01DX009 (ip), vehicle: saline
  T/C: 205 % of control
dose: 24.0 mg/kg/injection, schedule: Q01DX009 (ip), vehicle: saline
  T/C: 243 % of control
dose: 25.0 mg/kg/injection, schedule: Q04DX003 (ip), vehicle: water
  T/C: 150 % of control
dose: 26.0 mg/kg/injection, schedule: Q04DX003 (ip), vehicle: saline
  T/C: 96 % of control and 111 % of control
dose: 27.0 mg/kg/injection, schedule: Q01DX009 (ip), vehicle: Klucel (hydroxypropylcellulose) (HPC)
  T/C: 166 % of control
dose: 27.0 mg/kg/injection, schedule: Q01DX009 (ip), vehicle: saline sonified
  T/C: 181 % of control
dose: 27.0 mg/kg/injection, schedule: Q04DX003 (ip), vehicle: saline
  T/C: 154 % of control
dose: 32.0 mg/kg/injection, schedule: Q01DX005 (ip), vehicle: saline
  T/C: 185 % of control
dose: 36.0 mg/kg/injection, schedule: Q04DX003 (ip), vehicle: saline
  T/C: 153 % of control and 165 % of control
dose: 39.0 mg/kg/injection, schedule: Q01DX009 (ip), vehicle: saline
  T/C: 87 % of control
dose: 40.0 mg/kg/injection, schedule: Q01DX005 (ip), vehicle: water
  T/C: 185 % of control
dose: 40.0 mg/kg/injection, schedule: Q01DX010 (ip), vehicle: acetone
  T/C: 100 % of control
dose: 50.0 mg/kg/injection, schedule: Q01DX001 (ip), vehicle: saline
  T/C: 153 % of control
dose: 50.0 mg/kg/injection, schedule: Q04DX003 (ip), vehicle: saline
  T/C: 152 % of control and 158 % of control
dose: 50.0 mg/kg/injection, schedule: Q04DX003 (ip), vehicle: water
  T/C: 170 % of control
dose: 65.0 mg/kg/injection, schedule: Q04DX003 (ip), vehicle: saline
  T/C: 98 % of control
dose: 66.0 mg/kg/injection, schedule: Q01DX001 (ip), vehicle: saline
  T/C: 100 % of control and 111 % of control
dose: 75.0 mg/kg/injection, schedule: Q01DX001 (ip), vehicle: water
  T/C: 150 % of control
dose: 75.0 mg/kg/injection, schedule: Q04DX003 (ip), vehicle: saline
  T/C: 163 % of control and 196 % of control
dose: 80.0 mg/kg/injection, schedule: Q01DX010 (ip), vehicle: saline
  T/C: 90 % of control
dose: 88.0 mg/kg/injection, schedule: Q01DX001 (ip), vehicle: saline
  T/C: 99 % of control and 108 % of control
dose: 100.0 mg/kg/injection, schedule: Q04DX003 (ip), vehicle: water
  T/C: 190 % of control
dose: 108.0 mg/kg/injection, schedule: Q04DX003 (ip), vehicle: saline
  T/C: 98 % of control
dose: 160.0 mg/kg/injection, schedule: Q01DX001 (ip), vehicle: saline
  T/C: 104 % of control and 108 % of control and 117 % of control
dose: 175.0 mg/kg/injection, schedule: Q01DX001 (ip), vehicle: saline
  T/C: 150 % of control
dose: 180.0 mg/kg/injection, schedule: Q04DX003 (ip), vehicle: saline
  T/C: 100 % of control
dose: 200.0 mg/kg/injection, schedule: Q04DX003 (ip), vehicle: water
  T/C: 100 % of control
dose: 225.0 mg/kg/injection, schedule: Q01DX001 (ip), vehicle: saline
  T/C: 117 % of control
dose: 240.0 mg/kg/injection, schedule: Q01DX001 (ip), vehicle: saline
  T/C: 105 % of control and 106 % of control
dose: 250.0 mg/kg/injection, schedule: Q01DX001 (ip), vehicle: saline
  T/C: 90 % of control
dose: 360.0 mg/kg/injection, schedule: Q01DX001 (ip), vehicle: saline
  T/C: 109 % of control and 111 % of control
dose: 400.0 mg/kg/injection, schedule: Q01DX001 (ip), vehicle: saline
  T/C: 100 % of control
